Measured values: US6448006B1, “Methods and compositions for reducing bacterial tolerance to antibacterials disinfectants and organic solvents” (priority 1997, dated 2002)
≈ marks a conversion by molar mass, not a printed value. Like-named read-outs stand apart in the source and are kept apart here.

What was measured:
[1] = tested on: E. coli strain WEC and its Pine-Sol-selected mutant; experiment: Antibiotic susceptibility by discs (diameter of clearing); format: cell-based
Procedure: (§1) Mutants resistant to Pine-Sol/pine oil were obtained from stationary phase LB broth cultures of E. coli strain “WEC” (wild type strain 15-5068 from Carolina Biological Supply Co., Burlington, N.C.) and AG100 (George and Levy, J. Bacteriol. 155:531-540, 1983), at 30° C. on nutrient agar (NP 3.5GP) or LB agar with 2-3 days incubation in a variety of ways: using a 6 mm disc method; plating cells on plates or gradient plates (Curiale and Levy, J. Bacteriol. 151:209-215, 1982), containing PINE-SOL™ (product of Clorox Co., Oakland, Calif.) or pine oil itself.
(§2) Antibiotic susceptibility was measured at 30° C. using antibiotic susceptibility discs (Carolina Biological), gradient plates with the drug in the top agar (Curiale and Levy, 1982) or agar dilution plates (concentration steps of 1.5 fold; inocula of 10^5 cells/5 μl spot). While there was a variability of resistance phenotypes, all Pine-Sol/pine oil-selected mutants were also multidrug resistant (Table 1A, B).

[2] = tested on: E. coli strains (AG100, Pine-Sol/pine oil mutants, Mar mutants); experiment: Susceptibility by gradient plates (MIC); format: cell-based; details: Escherichia coli
Procedure: as §1, §2

[3] = tested on: E. coli strains bearing mar, soxS or robA plasmids; format: cell-based
Excerpt: Organic solvent tolerance mediated by the marA, soxS, robA and acrAB loci of E. coli is described in White et al. (J. Bacteriol. 179:6122-6126, 1997).

[4] = tested on: marA mRNA; experiment: Northern blot analysis of marA mRNA with inducer salicylate; format: cell-based, E. coli; details: Mar mutant AG102, mutants AP5 and NP3.5 GP
Excerpt: Over expression was also seen in mutant APS3 (data not shown). […] We concluded that AP5, NP3.5GP, and APS3, but not AP1, were probably Mar mutants.

[5] = read-out: Susceptibility by gradient plates (MIC), strain AG102, Mar mutant of AG100, selected on Tc (2 steps)
[6] = read-out: Susceptibility by gradient plates (MIC), strain AP1, mutant of AG100 selected by pine oil on disc
[7] = read-out: Susceptibility by gradient plates (MIC), strain AP5, mutant of AG100 selected as for AP1
[8] = read-out: Susceptibility by gradient plates (MIC), strain APS3, mutant of AG100 selected on Pine-Sol gradient (0-1.5%)
[9] = strain AG100, wildtype, read-out: Susceptibility by gradient plates (MIC)
[10] = strain HH180, deletion of 39 kb including mar locus, host MM294, read-out: Susceptibility by gradient plates (MIC)
[11] = strain HH188, HH180 containing pHHM183 (mar+), read-out: Susceptibility by gradient plates (MIC)
[12] = strain HH191, HH180 containing pHHM191 (marR2), read-out: Susceptibility by gradient plates (MIC)
[13] = strain HH193, HH180 containing pHHM193 (marR5), read-out: Susceptibility by gradient plates (MIC)

## CC1(C)S[C@@H]2[C@H](NC(=O)[C@H](N)c3ccccc3)C(=O)N2[C@H]1C(=O)O [Ap, ampicillin]
[1]; strain WEC, wild type, 30° C.
  Susceptibility by discs; diameter of clearing: 22 mm
[1]; {}
  Susceptibility by discs; diameter of clearing: 12 mm
[2]; [5]
  MIC: 85 µg/mL (≈ 243 µM)
[2]; [6]
  MIC: 3 µg/mL (≈ 8.59 µM)
[2]; [7]
  MIC: 7.2 µg/mL (≈ 20.6 µM)
[2]; [8]
  MIC: 7.7 µg/mL (≈ 22 µM)
[2]; [9]
  MIC: < 1.2 µg/mL
[2]; [10]
  MIC: < 0.6 µg/mL
[2]; [11]
  MIC: < 1 µg/mL
[2]; [12]
  MIC: 5.4 µg/mL (≈ 15.5 µM)
[2]; [13]
  MIC: 5.9 µg/mL (≈ 16.9 µM)

## O=C(N[C@H](CO)[C@H](O)c1ccc([N+](=O)[O-])cc1)C(Cl)Cl [Cm, chloramphenicol]
[1]; strain WEC, wild type, 30° C.
  Susceptibility by discs; diameter of clearing: 27 mm
[1]; {}
  Susceptibility by discs; diameter of clearing: 11 mm
[2]; [5]
  MIC: > 35 µg/mL
[2]; [6]
  MIC: 7.8 µg/mL (≈ 24.1 µM)
[2]; [7]
  MIC: 21 µg/mL (≈ 65 µM)
[2]; [8]
  MIC: > 35 µg/mL
[2]; [9]
  MIC: 2.6 µg/mL (≈ 8.05 µM)

## CCn1cc(C(=O)O)c(=O)c2ccc(C)nc21 [Nal, nalidixic acid]
[2]; [5]
  MIC: 14 µg/mL (≈ 60.3 µM)
[2]; [6]
  MIC: 9.7 µg/mL (≈ 41.8 µM)
[2]; [7]
  MIC: 7.5 µg/mL (≈ 32.3 µM)
[2]; [8]
  MIC: 8.6 µg/mL (≈ 37 µM)
[2]; [9]
  MIC: 1.7 µg/mL (≈ 7.32 µM)
[2]; [10]
  MIC: < 1.8 µg/mL
[2]; [11]
  MIC: 3.7 µg/mL (≈ 15.9 µM)
[2]; [12]
  MIC: 9.1 µg/mL (≈ 39.2 µM)
[2]; [13]
  MIC: 10.9 µg/mL (≈ 46.9 µM)

## CN(C)[C@@H]1C(O)=C(C(N)=O)C(=O)[C@@]2(O)C(O)=C3C(=O)c4c(O)cccc4[C@@](C)(O)[C@H]3C[C@@H]12 [Tc, tetracycline]
[1]; strain WEC, wild type, 30° C.
  Susceptibility by discs; diameter of clearing: 21 mm
[1]; {}
  Susceptibility by discs; diameter of clearing: 14 mm
[2]; [5]
  MIC: > 12.8 µg/mL
[2]; [6]
  MIC: 2.4 µg/mL (≈ 5.4 µM)
[2]; [7]
  MIC: 4.5 µg/mL (≈ 10.1 µM)
[2]; [8]
  MIC: 5.3 µg/mL (≈ 11.9 µM)
[2]; [9]
  MIC: 1.8 µg/mL (≈ 4.05 µM)
[2]; [10]
  MIC: < 0.6 µg/mL
[2]; [11]
  MIC: 1.2 µg/mL (≈ 2.7 µM)
[2]; [12]
  MIC: 8.2 µg/mL (≈ 18.5 µM)
[2]; [13]
  MIC: > 11.4 µg/mL

## CCCCCC [n-hexane]
[3]; AG100 (wild-type), no plasmid
  Growth in presence of organic solvent: + +
[3]; AG100, plasmid pMAK-TU1
  Growth in presence of organic solvent: + +
[3]; AG100, plasmid pMAK-TU1 & TU2
  Growth in presence of organic solvent: + +
[3]; AG100, plasmid pMAK-TU2
  Growth in presence of organic solvent: + +
[3]; AG100, plasmid pSMarAB
  Growth in presence of organic solvent: + +
[3]; AG100, plasmid pSRob
  Growth in presence of organic solvent: + +
[3]; AG100, plasmid pSXS
  Growth in presence of organic solvent: + +
[3]; AG100-A (ΔacrAB), no plasmid
  Growth in presence of organic solvent: −
[3]; AG100-B (acrR mutant), no plasmid
  Growth in presence of organic solvent: + +
[3]; AG100K (marCORAB::kan), no plasmid
  Growth in presence of organic solvent: + ((+) visible growth(≦100 colonies))
[3]; AG100K, plasmid pMAK-TU1
  Growth in presence of organic solvent: + ((+) visible growth(≦100 colonies))
[3]; AG100K, plasmid pMAK-TU2
  Growth in presence of organic solvent: + +
[3]; AG100K, plasmid pMAK-TUI & TU2
  Growth in presence of organic solvent: + +
[3]; AG100K, plasmid pSMarAB
  Growth in presence of organic solvent: + +
[3]; AG100K, plasmid pSRob
  Growth in presence of organic solvent: + +
[3]; AG100K, plasmid pSXS
  Growth in presence of organic solvent: + +
[3]; AG102 (marR mutation), no plasmid
  Growth in presence of organic solvent: + +
[3]; AG102-A (marRl, ΔacrAB), no plasmid
  Growth in presence of organic solvent: −
[3]; AG102-A, plasmid pSMarAB
  Growth in presence of organic solvent: −
[3]; AG102-A, plasmid pSRob
  Growth in presence of organic solvent: −
[3]; AG102-A, plasmid pSXS
  Growth in presence of organic solvent: −
[3]; DJ901 (ΔsoxRS), no plasmid
  Growth in presence of organic solvent: + +
[3]; DJ901, plasmid pMAK-TU1
  Growth in presence of organic solvent: + +
[3]; DJ901, plasmid pMAK-TU1 & TU2
  Growth in presence of organic solvent: + +
[3]; DJ901, plasmid pMAK-TU2
  Growth in presence of organic solvent: + +
[3]; DJ901, plasmid pSMarAB
  Growth in presence of organic solvent: + +
[3]; DJ901, plasmid pSRob
  Growth in presence of organic solvent: + +
[3]; DJ901, plasmid pSXS
  Growth in presence of organic solvent: + +
[3]; GC4468 (wild-type), no plasmid
  Growth in presence of organic solvent: + +
[3]; GC4468, plasmid pMAK-TU1
  Growth in presence of organic solvent: + +
[3]; GC4468, plasmid pMAK-TU1 & TU2
  Growth in presence of organic solvent: + +
[3]; GC4468, plasmid pMAK-TU2
  Growth in presence of organic solvent: + +
[3]; GC4468, plasmid pSMarAB
  Growth in presence of organic solvent: + +
[3]; GC4468, plasmid pSRob
  Growth in presence of organic solvent: + +
[3]; GC4468, plasmid pSXS
  Growth in presence of organic solvent: + +
[3]; JHC1069 (cfxB1), no plasmid
  Growth in presence of organic solvent: + +
[3]; JTG1078 (soxR105), no plasmid
  Growth in presence of organic solvent: + +
[3]; MCH164 (Δmar), no plasmid
  Growth in presence of organic solvent: + ((+) visible growth(≦100 colonies))
[3]; MCH164, plasmid pMAK-TU1
  Growth in presence of organic solvent: + ((+) visible growth(≦100 colonies))
[3]; MCH164, plasmid pMAK-TU1 & TU2
  Growth in presence of organic solvent: + +
[3]; MCH164, plasmid pMAK-TU2
  Growth in presence of organic solvent: + +
[3]; MCH164, plasmid pSMarAB
  Growth in presence of organic solvent: + +
[3]; MCH164, plasmid pSRob
  Growth in presence of organic solvent: + +
[3]; MCH164, plasmid pSXS
  Growth in presence of organic solvent: + +
[3]; RA4468 (robA::kan), no plasmid
  Growth in presence of organic solvent: + ((+) visible growth(≦100 colonies))
[3]; RA4468, plasmid pMAK-TU1
  Growth in presence of organic solvent: + ((+) visible growth(≦100 colonies))
[3]; RA4468, plasmid pMAK-TU1 & TU2
  Growth in presence of organic solvent: + +
[3]; RA4468, plasmid pMAK-TU2
  Growth in presence of organic solvent: + +
[3]; RA4468, plasmid pSMarAB
  Growth in presence of organic solvent: + +
[3]; RA4468, plasmid pSRob
  Growth in presence of organic solvent: + +
[3]; RA4468, plasmid pSXS
  Growth in presence of organic solvent: + +

## CCCCC [n-pentane]
[3]; AG102, Mar mutant of AG100, data not shown
  Growth in presence of organic solvent: grew

## O=C(O)c1ccccc1O [salicylate]
[4]
  Effect of inducer on over expression of marA mRNA: enhanced
